One experiment has as its target Cdk2-cyclin A (Homo sapiens, UniProt P24941). Put plainly: In vitro kinase assay, Cdk2-cyclin A (in-house). It is filed as biochemical. The method, then:
(§1) The in vitro kinase assays for testing against Cdk4-cyclin D1, Cdk2-cyclin A, Cdk1-cyclin B1 and Cdk9-cyclin T1 were performed in-house. The methodology and results have been reported previously.[20], [30], [31], [32], [45] The kinase profiling for 58 representative kinases was carrried out commercially at Millipore Bioscience Division, Livingston, UK.

Another experiment addresses Cdk1-cyclin B1 (Homo sapiens, UniProt P06493). The experiment is described as follows: In vitro kinase assay, Cdk1-cyclin B1 (in-house). It is filed as biochemical. The following applies: three independent experiments; read-out: IC50 (mean±S.D.), Cdk1-cyclin B1. The method, then:
as §1

A further experiment concerns the target Cdk9-cyclin T1 (Homo sapiens, UniProt P50750). Put plainly: In vitro kinase assay, Cdk9-cyclin T1 (in-house). It is filed as biochemical. The following applies: three independent experiments; read-out: IC50 (mean±S.D.), Cdk9-cyclin T1. The method, then:
as §1

For experiment [1], the system named is pBluescript plasmid DNA. Put plainly: EtBr displacement assay. It counts as binding. To be noted: 1.3 μM EtBr. The method, then:
The assays were performed in a 96-well plate with clear bottom (Costar, Washington, DC, USA). The assay involved the addition of 10 μl of 10 × concentrated stock solution of compounds (dissolved in DMSO and further diluted in EtBr displacement assay buffer) to 90 μl of reaction mixture containing 6 μg of purified pBlueScript DNA and 1.3 μM EtBr in EtBr displacement assay buffer with final pH 7.4. Equivalent amounts of DMSO were added to the vehicle controls. In addition to control samples (DNA+EtBr), test samples (DNA+EtBr+test compounds), blank 1 (EtBr only), blank 2 (DNA only), wells containing DNA and compound were also prepared to test any change in the background fluorescence readings. The reduction in relative fluorescence counts was monitored ([…]) and recorded after 1 min equilibration time. Fascaplysin and actinomycin D, which are known to intercalate d-s DNA, were used as standard compounds in assay. The mean control and test readings were corrected by subtracting blank readings. The percentage fluorescence in the test samples in reaction with control samples was calculated by using following formula: […]

Experiment [2] has as its system pBluescript plasmid DNA. The experiment is described as follows: Topoisomerase I catalysed DNA relaxation or unwinding assay. It counts as biochemical. The method, then: For assay, 5 nM supercoiled pBluescript d-s plasmid DNA and 10 U of topoisomerase-I active enzyme were used in each reaction well. To ensure that the assay determines the DNA-intercalating property of compounds and not topoisomerase I inhibition, in a parallel experiment relaxed plasmid DNA was first prepared by treating with topo I enzyme for 30 min and then used as an initial substrate for the assay. DNA relaxation assays were performed in the presence or absence of compounds in 40 μl of DNA unwinding assay buffer. After 30 min incubation at 37 °C, reaction mixtures were treated with 3 μl of 250 mM EDTA and extracted with phenol/chloroform. The DNA was dissolved in tris-EDTA buffer, pH 8.0. The samples (20 μl) were treated with 2 μl of 2.5% SDS, mixed with 2.5 μl agarose gel loading buffer (10x) and subjected to electrophoresis on a 0.8% agarose gel without EtBr (separating the DNA in the presence of EtBr would convert the relaxed DNA into the supercoiled form). After the electrophoretic separation, DNA bands were stained with 1 μg/ml EtBr and visualized using a UV illuminator. The compounds were compared with fascaplysin, which is a known DNA-intercalating molecule. Camptothecin, which is a known topoisomerase- I inhibitor, was used to test the activity and inhibition of enzyme.

Experiment [3] concerns LS174T (colorectal carcinoma; p53+, pRb+). The experiment is described as follows: Cell proliferation (MTT) assay, LS174T. To be noted: Homo sapiens, 48 h, read-out: IC50 cell growth inhibition, LS174T. It is filed as cell-based. The method, then:
(§2) All 10 human cancer cell lines were maintained at 37 °C in 5% CO2 in RPMI-1640 medium, supplemented with 10% foetal calf serum and 100 μg/ml normocin. The 10 cancer cell lines used for screening were all obtained from ATCC (Manassas, VA, USA); they were the NSCLC (a form of cancer that is resistant to chemotherapy) lines: NCI-H460 (pRb^+, p53^+), A549 (pRb^+, p53^+), Calu-1 (pRb^+, p53-null), NCI-H1299 (pRb^+, p53-null), NCI-H358 (pRb-null, p53-null); the colon cancer line LS174T (pRb^+, p53^+); the prostate cancer line PC-3 (pRb^+, p53-null); the pancreatic cancer line MiaPaca (pRb^+, p53-mutant). The genotypes within brackets indicate the status of the tumour suppressor proteins pRb and p53. The mouse embryonic normal hepatic cell line (BNL CL2) and its SV40 large T-antigen-transformed counterpart cell line (BNL SV A.8) were also purchased from ATCC. The large T-antigen inactivates the tumour suppressor proteins p53 and pRb. The detailed procedure of cell proliferation (MTT) assay and IC50 determination was described previously.[32]

Experiment [4] concerns PC-3 (prostate; p53 null, pRb+). Put plainly: Cell proliferation (MTT) assay, PC-3. It is filed as cell-based. The following applies: Homo sapiens, 48 h, read-out: IC50 cell growth inhibition, PC-3. The method, then: as §2
Experiment [5] deals with MiaPaCa (pancreatic; p53His273mut, pRb+). The experiment is described as follows: Cell proliferation (MTT) assay, MiaPaCa. The following applies: Homo sapiens, MIA PaCa-2, 48 h, read-out: IC50 cell growth inhibition, MiaPaCa. It is filed as cell-based. The method, then:
as §2

In a further experiment the test system is A549 (NSCLC; p53+, pRb+). Put plainly: Cell proliferation (MTT) assay, A549. It is filed as cell-based. The following applies: Homo sapiens, 48 h, read-out: IC50 cell growth inhibition, A549. The method, then:
as §2

Experiment [6] relates to Calu-1 (NSCLC; p53 null, pRb+). The experiment is described as follows: Cell proliferation (MTT) assay, Calu-1. It counts as cell-based, human. The following applies: Homo sapiens, Calu-1; 48 h, MTT; read-out: IC50 cell growth inhibition, Calu-1. The method, then: as §2
The next experiment addresses Cdk4-cyclin D1 (Homo sapiens, UniProt P11802). Details: method as in PMID 12941311, PMID 15165138. The following applies: cited from earlier work.

What is called IC50 is the concentration needed to halve the response being measured.

Sequence of Cdk1-cyclin B1 (P06493 whole entry): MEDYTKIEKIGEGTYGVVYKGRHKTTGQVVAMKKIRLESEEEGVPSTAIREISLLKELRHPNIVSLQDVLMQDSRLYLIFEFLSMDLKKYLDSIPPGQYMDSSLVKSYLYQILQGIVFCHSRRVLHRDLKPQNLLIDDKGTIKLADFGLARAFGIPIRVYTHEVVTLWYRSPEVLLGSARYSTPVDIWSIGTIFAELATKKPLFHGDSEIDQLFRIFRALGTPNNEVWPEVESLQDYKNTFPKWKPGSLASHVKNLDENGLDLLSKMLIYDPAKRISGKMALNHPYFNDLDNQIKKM
Sequence of Cdk1-cyclin B1 (P14635 whole entry partner): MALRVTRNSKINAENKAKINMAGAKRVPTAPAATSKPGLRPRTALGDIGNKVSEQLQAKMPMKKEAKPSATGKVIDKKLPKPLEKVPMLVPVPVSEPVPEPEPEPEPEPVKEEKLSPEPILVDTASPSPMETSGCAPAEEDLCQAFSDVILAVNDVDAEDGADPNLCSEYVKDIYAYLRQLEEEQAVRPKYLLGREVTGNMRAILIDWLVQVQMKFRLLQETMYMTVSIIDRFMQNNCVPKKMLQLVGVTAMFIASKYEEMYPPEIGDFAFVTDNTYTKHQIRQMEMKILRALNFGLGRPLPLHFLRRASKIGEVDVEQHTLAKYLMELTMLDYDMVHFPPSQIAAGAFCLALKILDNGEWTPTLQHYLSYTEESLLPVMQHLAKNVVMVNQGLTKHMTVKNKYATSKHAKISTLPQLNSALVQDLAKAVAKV
Sequence of Cdk9-cyclin T1 (P50750 whole entry): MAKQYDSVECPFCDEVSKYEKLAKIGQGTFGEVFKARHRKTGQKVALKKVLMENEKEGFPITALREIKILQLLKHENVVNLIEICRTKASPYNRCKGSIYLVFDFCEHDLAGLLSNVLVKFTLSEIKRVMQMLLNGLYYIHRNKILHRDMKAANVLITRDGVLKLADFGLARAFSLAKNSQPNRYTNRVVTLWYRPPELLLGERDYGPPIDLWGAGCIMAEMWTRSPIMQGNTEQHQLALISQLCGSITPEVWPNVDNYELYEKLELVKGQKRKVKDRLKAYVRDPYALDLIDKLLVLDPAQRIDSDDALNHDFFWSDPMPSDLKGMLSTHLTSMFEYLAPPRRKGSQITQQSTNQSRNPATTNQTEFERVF
Sequence of Cdk9-cyclin T1 (O60563 whole entry partner): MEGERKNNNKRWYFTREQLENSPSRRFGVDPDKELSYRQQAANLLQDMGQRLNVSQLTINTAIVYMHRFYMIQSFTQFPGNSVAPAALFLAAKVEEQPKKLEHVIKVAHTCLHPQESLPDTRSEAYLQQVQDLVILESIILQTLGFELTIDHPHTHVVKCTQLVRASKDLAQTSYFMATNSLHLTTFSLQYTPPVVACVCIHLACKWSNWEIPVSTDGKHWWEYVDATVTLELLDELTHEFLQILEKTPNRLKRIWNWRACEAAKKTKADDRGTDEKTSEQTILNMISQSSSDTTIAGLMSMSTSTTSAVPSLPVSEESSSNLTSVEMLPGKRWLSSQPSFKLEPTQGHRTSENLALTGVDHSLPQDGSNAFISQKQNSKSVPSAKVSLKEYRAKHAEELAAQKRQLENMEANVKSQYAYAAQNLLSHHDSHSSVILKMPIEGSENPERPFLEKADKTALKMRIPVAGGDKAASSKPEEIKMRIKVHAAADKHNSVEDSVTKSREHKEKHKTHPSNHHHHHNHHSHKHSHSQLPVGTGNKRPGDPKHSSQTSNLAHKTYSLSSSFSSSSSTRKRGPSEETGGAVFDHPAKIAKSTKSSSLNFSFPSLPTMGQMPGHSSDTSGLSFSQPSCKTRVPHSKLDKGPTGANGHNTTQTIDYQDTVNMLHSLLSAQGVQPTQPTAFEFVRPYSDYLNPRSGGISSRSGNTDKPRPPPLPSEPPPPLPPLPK
Sequence of Cdk4-cyclin D1 (P11802 whole entry): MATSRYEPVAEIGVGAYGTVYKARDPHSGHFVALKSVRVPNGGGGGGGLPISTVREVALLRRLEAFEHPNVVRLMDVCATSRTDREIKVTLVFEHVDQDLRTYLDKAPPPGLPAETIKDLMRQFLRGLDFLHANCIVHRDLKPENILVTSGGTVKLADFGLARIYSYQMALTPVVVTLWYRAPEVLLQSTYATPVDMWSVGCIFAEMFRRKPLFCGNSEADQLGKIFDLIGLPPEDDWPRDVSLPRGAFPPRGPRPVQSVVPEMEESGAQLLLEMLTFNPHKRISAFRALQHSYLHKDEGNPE
Sequence of Cdk4-cyclin D1 (P24385 whole entry partner): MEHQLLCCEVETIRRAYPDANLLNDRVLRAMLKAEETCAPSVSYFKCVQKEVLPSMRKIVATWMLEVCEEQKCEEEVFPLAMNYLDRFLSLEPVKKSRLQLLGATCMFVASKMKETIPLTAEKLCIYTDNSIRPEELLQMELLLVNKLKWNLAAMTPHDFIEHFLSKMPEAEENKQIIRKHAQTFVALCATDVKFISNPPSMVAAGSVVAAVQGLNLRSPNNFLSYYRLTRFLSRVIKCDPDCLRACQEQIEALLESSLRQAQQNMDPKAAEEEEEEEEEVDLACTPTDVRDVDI

In the case of `O=C1c2ccccc2-[n+]2ccc3c([nH]c4ccccc43)c21` [Fascaplysin, fascaplysin, reference compound], the concentration for half-maximal inhibition (IC50) at Cdk2-cyclin A is over 250000 nM; on Cdk1-cyclin B1, over 250000 nM; at Cdk9-cyclin T1, over 250000 nM; in [3] it was 880 nM; in experiment [4] it was 920 nM; in experiment [5], 880 nM. Besides, the IC50 in the experiment on A549 (NSCLC; p53+, pRb+) is 690 nM; in [6], 1300 nM; at Cdk4-cyclin D1 it was about 350 nM. The “EtBr displacement from DNA” value with pBluescript plasmid DNA [1] (pH 7.4) is reported as “Displaces EtBr at 1 μM”; in the experiment on pBluescript plasmid DNA [1] (pH 7.4, listed as fascaplysin), “readily dislodges the bound EtBr”. Besides, the “state of relaxed (negatively supercoiled) plasmid DNA after treatment” value in the experiment on pBluescript plasmid DNA [2] (relaxed pBluescript DNA as substrate, BPT up to 100 μM, fascaplysin 1 μM) is given as “does not remain intact”. For the same molecule, in the experiment with pBluescript plasmid DNA [2] (supercoiled pBluescript DNA, fascaplysin 10 and 1 µM, BPT 10 and 100 µM), the “hindrance of topoisomerase-I catalysed DNA relaxation” value is given as “hinder topoisomerase-I catalysed DNA relaxation”.

These data come from article PMC4669722, “Antitumour potential of BPT: a dual inhibitor of cdk4 and tubulin polymerization” (Cell Death & Disease, 2015).
